Reference: paper PMC6248945, “Antibacterial properties of the pituitary adenylate cyclase-activating polypeptide: A new human antimicrobial peptide” (PLoS ONE, 2018)
≈ marks a conversion by molar mass, not a printed value. Where a SMILES comes first, the peptide text is derived from it.

What was measured:
[1] = system: Staphylococcus aureus (Newman); details: 20 h
[2] = system: Escherichia coli ATCC25922; details: ATCC25922, 20 h
[3] = system: Pseudomonas aeruginosa (ATCC33350-Sero-2); details: ATCC33350, 20 h
[4] = system: Pseudomonas aeruginosa (PA14); details: PA14, 20 h
[5] = system: Escherichia coli (O157 :H7); details: CLSI microdilution, MHB, 37 °C, 20h, OD read-out; at least triplicate
[6] = system: Burkholderia cenocepacia (CEP0511 Gvar3b); details: CLSI microdilution, MHB, 37 °C, 20h, OD read-out; at least triplicate
[7] = system: Bacillus circulans (LSPQ3543); details: 20 h
[8] = system: Burkholderia cenocepacia (LMG19240); details: CLSI microdilution, MHB, 37 °C, 20h, OD read-out; at least triplicate
[9] = system: Burkholderia cenocepacia (J2315); details: 20 h
Escherichia coli (JM109) = assay: MIC, CLSI microdilution; format: cell-based; details: MHB, 37 °C, 20h, OD read-out, at least triplicate
Experimental: Assays were performed according to the CLSI microdilution method. Briefly, the bacterial strains were inoculated and allowed to reach an OD600 of 0.08–0.13 prior to dilution to 10^6 CFU/mL in Mueller-Hinton broth (MHB). A bacterial suspension (50 μL) was then added to each well of a 96-well microplate containing serially diluted peptide solutions (50 μL in MHB) and incubated at 37 °C for 20h. A well containing sterilized medium was used as a sterility control and another well containing no added peptide served as a growth control.

[10] = system: Pseudomonas putida (KT2440); details: 20 h
[11] = system: Burkholderia cenocepacia (LMG18829); details: LMG18829, 20 h
[12] = system: Burkholderia cenocepacia (K56-2); details: 20 h
[13] = system: Actinobacillus pleuropneumoniae (4074); details: 20 h
DPP-IV = system: DPP-IV; set-up: method as in PMID 18353507; details: cited from earlier work
[14] = system: Pseudomonas fluorescens (MF37); details: 20 h
[15] = system: Burkholderia thailendensis (ATCC700388); details: CLSI microdilution, MHB, 37 °C, 20h, OD read-out; at least triplicate
Bacillus subtilis (PY79) = details: PY79, 20 h
[16] = system: Bacillus cereus (ATCC11778); details: ATCC11778, 20 h
[17] = system: Bacillus amyloliquefaciens (LMG22478); details: LMG22478, 20 h
[18] = system: Staphylococcus aureus (ATCC6538#P); details: ATCC6538, 20 h
[19] = relative to PACAP38; cited from earlier work
Bacillus velezensis = details: 20 h
[20] = system: Serratia marcescens (ATCC14756); details: ATCC14756, 20 h
Bacillus subtilis (2597) = details: 2597, 20 h

SMILES	MIC, Staphylococcus aureus (Newman) [1] [µg/mL]	MIC, Escherichia coli ATCC25922 [2] [µg/mL]	MIC, Pseudomonas aeruginosa (ATCC33350-Sero-2) [3] [µg/mL]	MIC, Pseudomonas aeruginosa (PA14) [4] [µg/mL]	MIC, Escherichia coli (O157 :H7) [5] [µg/mL]	MIC, Burkholderia cenocepacia (CEP0511 Gvar3b) [6] [µg/mL]	MIC, Bacillus circulans (LSPQ3543) [7] [µg/mL]	MIC, Burkholderia cenocepacia (LMG19240) [8] [µg/mL]	MIC, Burkholderia cenocepacia (J2315) [9] [µg/mL]	MIC, Escherichia coli (JM109) (Escherichia coli (JM109)) [µg/mL]	MIC, Pseudomonas putida (KT2440) [10] [µg/mL]	MIC, Burkholderia cenocepacia (LMG18829) [11] [µg/mL]	MIC, Burkholderia cenocepacia (K56-2) [12] [µg/mL]	MIC, Actinobacillus pleuropneumoniae [13] [µg/mL]	Metabolic stability against DPP-IV (DPP-IV)	MIC, Pseudomonas fluorescens (MF37) [14] [µg/mL]	MIC, Burkholderia thailendensis (ATCC700388) [15] [µg/mL]	MIC, Bacillus subtilis (PY79) (Bacillus subtilis (PY79)) [µg/mL]	MIC, Bacillus cereus (ATCC11778) [16] [µg/mL]	MIC, Bacillus amyloliquefaciens [17] [µg/mL]	also measured
CC[C@H](C)[C@H](NC(=O)CNC(=O)[C@H](CC(=O)O)NC(=O)[C@H](CO)NC(=O)[C@@H](N)Cc1c[nH]cn1)C(=O)N[C@@H](Cc1ccccc1)C(=O)N[C@H](C(=O)N[C@@H](CC(=O)O)C(=O)N[C@@H](CO)C(=O)N[C@@H](Cc1ccc(O)cc1)C(=O)N[C@@H](CO)C(=O)N[C@@H](CCCNC(=N)N)C(=O)N[C@@H](Cc1ccc(O)cc1)C(=O)N[C@@H](CCCNC(=N)N)C(=O)N[C@@H](C)C(=O)N[C@@H](CCC(N)=O)C(=O)N[C@@H](CCSC)C(=O)N[C@@H](C)C(=O)N[C@H](C(=O)N[C@@H](CCCCN)C(=O)N[C@@H](CCCCN)C(=O)N[C@@H](Cc1ccc(O)cc1)C(=O)N[C@@H](CC(C)C)C(=O)N[C@@H](C)C(=O)N[C@@H](C)C(=O)N[C@H](C(=O)N[C@@H](CC(C)C)C(=O)NCC(=O)N[C@@H](CCCCN)C(=O)N[C@@H](CCCNC(=N)N)C(=O)N[C@@H](Cc1ccc(O)cc1)C(=O)N[C@@H](CCCCN)C(=O)N[C@@H](CCC(N)=O)C(=O)N[C@@H](CCCNC(=N)N)C(=O)N[C@H](C(=O)N[C@@H](CCCCN)C(=O)N[C@@H](CC(N)=O)C(=O)N[C@@H](CCCCN)C(N)=O)C(C)C)C(C)C)C(C)C)[C@@H](C)O [compound 3, [Ala^15]PACAP38] (H-HSDGIFTDSYSRYRAQMAVKKYLAAVLGKRYKQRVKNK-NH2)	>200	>200	>200	>200	>200	>200	21 (≈ 4.69 µM)	>200	9 (≈ 2.01 µM)	93 (≈ 20.8 µM)	93 (≈ 20.8 µM)	>200	>200	112 (≈ 25 µM)	improved metabolic stability	>200	>200	5 (≈ 1.12 µM)	>200	10 (≈ 2.23 µM)	MIC, Staphylococcus aureus (ATCC6538#P) [18]: >200 µg/mL; Metabolic stability in human plasma [19]: improved metabolic stability; MIC, Bacillus velezensis (Bacillus velezensis): 33 µg/mL (≈ 7.37 µM); MIC, Serratia marcescens (ATCC14756) [20]: >200 µg/mL; MIC, Bacillus subtilis (2597) (Bacillus subtilis (2597)): 111 µg/mL (≈ 24.8 µM)
CC[C@H](C)[C@H](NC(=O)CNC(=O)[C@H](CC(=O)O)NC(=O)[C@H](CO)NC(=O)[C@@H](N)Cc1c[nH]cn1)C(=O)N[C@@H](Cc1ccccc1)C(=O)N[C@H](C(=O)N[C@@H](CC(=O)O)C(=O)N[C@@H](CO)C(=O)N[C@@H](Cc1ccc(O)cc1)C(=O)N[C@@H](CO)C(=O)N[C@@H](CCCNC(=N)N)C(=O)N[C@@H](Cc1ccc(O)cc1)C(=O)N[C@@H](CCCNC(=N)N)C(=O)N[C@@H](CCCCN)C(=O)N[C@@H](CCC(N)=O)C(=O)N[C@@H](CCSC)C(=O)N[C@@H](C)C(=O)N[C@H](C(=O)N[C@@H](CCCCN)C(=O)N[C@@H](C)C(=O)N[C@@H](Cc1ccc(O)cc1)C(=O)N[C@@H](CC(C)C)C(=O)N[C@@H](C)C(=O)N[C@@H](C)C(=O)N[C@H](C(=O)N[C@@H](CC(C)C)C(=O)NCC(=O)N[C@@H](CCCCN)C(=O)N[C@@H](CCCNC(=N)N)C(=O)N[C@@H](Cc1ccc(O)cc1)C(=O)N[C@@H](CCCCN)C(=O)N[C@@H](CCC(N)=O)C(=O)N[C@@H](CCCNC(=N)N)C(=O)N[C@H](C(=O)N[C@@H](CCCCN)C(=O)N[C@@H](CC(N)=O)C(=O)N[C@@H](CCCCN)C(N)=O)C(C)C)C(C)C)C(C)C)[C@@H](C)O [compound 5, [Ala^21]PACAP38] (H-HSDGIFTDSYSRYRKQMAVKAYLAAVLGKRYKQRVKNK-NH2)	>200	>200	>200	>200	>200	>200	84 (≈ 18.8 µM)	>200	20 (≈ 4.47 µM)	112 (≈ 25 µM)	186 (≈ 41.5 µM)	>200	>200	>200	improved metabolic stability	>200	>200	42 (≈ 9.38 µM)	>200	20 (≈ 4.47 µM)	MIC, Staphylococcus aureus (ATCC6538#P) [18]: >200 µg/mL; Metabolic stability in human plasma [19]: improved metabolic stability; MIC, Bacillus velezensis (Bacillus velezensis): 168 µg/mL (≈ 37.5 µM); MIC, Serratia marcescens (ATCC14756) [20]: >200 µg/mL; MIC, Bacillus subtilis (2597) (Bacillus subtilis (2597)): 56 µg/mL (≈ 12.5 µM)
CCCCCC(=O)N[C@@H](Cc1c[nH]cn1)C(=O)N[C@@H](CO)C(=O)N[C@@H](CC(=O)O)C(=O)NCC(=O)N[C@H](C(=O)N[C@@H](Cc1ccccc1)C(=O)N[C@H](C(=O)N[C@@H](CC(=O)O)C(=O)N[C@@H](CO)C(=O)N[C@@H](Cc1ccc(O)cc1)C(=O)N[C@@H](CO)C(=O)N[C@@H](CCCNC(=N)N)C(=O)N[C@@H](Cc1ccc(O)cc1)C(=O)N[C@@H](CCCNC(=N)N)C(=O)N[C@@H](CCCCN)C(=O)N[C@@H](CCC(N)=O)C(=O)N[C@@H](CCSC)C(=O)N[C@@H](C)C(=O)N[C@H](C(=O)N[C@@H](CCCCN)C(=O)N[C@@H](CCCCN)C(=O)N[C@@H](Cc1ccc(O)cc1)C(=O)N[C@@H](CC(C)C)C(=O)N[C@@H](C)C(=O)N[C@@H](C)C(=O)N[C@H](C(=O)N[C@@H](CC(C)C)C(=O)NCC(=O)N[C@@H](CCCCN)C(=O)N[C@@H](CCCNC(=N)N)C(=O)N[C@@H](Cc1ccc(O)cc1)C(=O)N[C@@H](CCCCN)C(=O)N[C@@H](CCC(N)=O)C(=O)N[C@@H](CCCNC(=N)N)C(=O)N[C@H](C(=O)N[C@@H](CCCCN)C(=O)N[C@@H](CC(N)=O)C(=O)N[C@@H](CCCCN)C(N)=O)C(C)C)C(C)C)C(C)C)[C@@H](C)O)[C@@H](C)CC [compound 2, N-hexanoyl-PACAP38]	>200	>200	>200	>200	>200	>200	58 (≈ 12.5 µM)	>200	10 (≈ 2.16 µM)	116 (≈ 25 µM)	77 (≈ 16.6 µM)	>200	>200	232 (≈ 50.1 µM)	improved metabolic stability	>200	>200	12 (≈ 2.59 µM)	>200	26 (≈ 5.61 µM)	MIC, Staphylococcus aureus (ATCC6538#P) [18]: >200 µg/mL; Metabolic stability in human plasma [19]: improved metabolic stability; MIC, Bacillus velezensis (Bacillus velezensis): 87 µg/mL (≈ 18.8 µM); MIC, Serratia marcescens (ATCC14756) [20]: >200 µg/mL; MIC, Bacillus subtilis (2597) (Bacillus subtilis (2597)): 154 µg/mL (≈ 33.2 µM)
